From patent US6583180B2, “Glucocorticoid receptor modulators” (Abbott Laboratories, priority 2001, dated 2003)

Key:
[1] = target: T1, progesterone receptor (PR) (Homo sapiens, UniProt P06401); test: Radioligand binding assay for progesterone receptor (similar protocol);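 further: radioligand binding measured with cytosol preparations containing the human progesterone receptor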
T1 sequence (P06401 1-933): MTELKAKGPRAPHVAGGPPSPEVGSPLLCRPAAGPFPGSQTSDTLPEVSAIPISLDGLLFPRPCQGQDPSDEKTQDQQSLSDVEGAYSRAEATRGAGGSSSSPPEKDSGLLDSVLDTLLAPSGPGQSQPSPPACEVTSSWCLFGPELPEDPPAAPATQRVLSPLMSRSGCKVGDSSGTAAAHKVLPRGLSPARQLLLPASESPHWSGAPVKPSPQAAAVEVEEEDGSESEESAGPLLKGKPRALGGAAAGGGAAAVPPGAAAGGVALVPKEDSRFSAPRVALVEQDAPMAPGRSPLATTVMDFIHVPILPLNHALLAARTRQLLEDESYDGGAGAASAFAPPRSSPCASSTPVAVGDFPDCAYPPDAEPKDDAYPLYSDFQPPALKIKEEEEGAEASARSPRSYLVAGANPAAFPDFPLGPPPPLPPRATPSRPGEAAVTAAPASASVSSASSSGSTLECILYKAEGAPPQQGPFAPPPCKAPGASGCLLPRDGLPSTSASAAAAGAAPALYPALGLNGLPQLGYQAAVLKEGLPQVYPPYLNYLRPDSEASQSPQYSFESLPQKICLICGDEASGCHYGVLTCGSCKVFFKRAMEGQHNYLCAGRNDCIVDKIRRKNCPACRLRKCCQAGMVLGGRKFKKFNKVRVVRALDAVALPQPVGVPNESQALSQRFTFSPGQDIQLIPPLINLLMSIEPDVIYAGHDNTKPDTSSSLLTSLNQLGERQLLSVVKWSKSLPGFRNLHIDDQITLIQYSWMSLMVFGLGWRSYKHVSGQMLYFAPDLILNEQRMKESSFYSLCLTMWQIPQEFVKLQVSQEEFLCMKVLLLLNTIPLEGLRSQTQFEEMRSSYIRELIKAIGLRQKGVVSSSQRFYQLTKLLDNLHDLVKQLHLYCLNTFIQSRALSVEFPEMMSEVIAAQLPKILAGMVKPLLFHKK
Description: Methods for Radiolipand Binding Studies with Human Glucocorticoid and Progesterone Receptor Cytosol

[2] = target: T2, Human glucocorticoid receptors (Homo sapiens, UniProt P04150); test: Radioligand filter binding assay, displacement of 3[H]-dexamethasone from hGR; conditions: read-out: GR Binding (% Inhibition at 1.7 μM)
T2 construct: made in house; host or cells: Sf9 insect cells, recombinant baculovirus (BAC-TO-BAC)
T2 sequence (P04150 1-777): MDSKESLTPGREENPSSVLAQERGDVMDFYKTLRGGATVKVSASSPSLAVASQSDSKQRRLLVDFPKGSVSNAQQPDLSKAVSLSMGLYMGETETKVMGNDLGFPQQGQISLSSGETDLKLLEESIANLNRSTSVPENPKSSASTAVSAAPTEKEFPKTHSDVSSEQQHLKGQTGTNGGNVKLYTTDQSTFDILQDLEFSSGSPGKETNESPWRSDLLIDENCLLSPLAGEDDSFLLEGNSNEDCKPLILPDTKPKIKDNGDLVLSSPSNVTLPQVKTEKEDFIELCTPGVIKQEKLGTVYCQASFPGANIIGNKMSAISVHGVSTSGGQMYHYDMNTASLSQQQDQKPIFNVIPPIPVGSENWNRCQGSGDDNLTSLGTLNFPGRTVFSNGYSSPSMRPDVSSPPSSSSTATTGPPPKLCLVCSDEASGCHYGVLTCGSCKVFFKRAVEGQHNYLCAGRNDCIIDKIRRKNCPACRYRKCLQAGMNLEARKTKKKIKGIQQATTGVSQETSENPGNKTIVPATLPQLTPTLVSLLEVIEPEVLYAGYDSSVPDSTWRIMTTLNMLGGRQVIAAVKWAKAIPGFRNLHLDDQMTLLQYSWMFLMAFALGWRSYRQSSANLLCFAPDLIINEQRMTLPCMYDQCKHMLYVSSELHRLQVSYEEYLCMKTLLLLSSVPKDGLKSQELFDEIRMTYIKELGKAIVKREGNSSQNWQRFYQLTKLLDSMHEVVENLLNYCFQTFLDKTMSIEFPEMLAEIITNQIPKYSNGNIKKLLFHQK
Outline: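 Recombinant hGR extract from baculovirus-infected Sf9 cells (final ~1 nM receptor) incubated with ³H-dexamethasone and test compound dilutions in duplicate, EDTA/phosphate pH 8 buffer with MTG, overnight (15-20 h) at +4° C. Bound label collected on PEI-treated GF/B filters and scintillation-counted; IC50 from four-parameter fit of corrected cpm.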

SMILES | IC50 [1] [nM] | inhibition at 1.7 µM [2] [%]
Cc1c(NS(C)(=O)=O)cccc1N(Cc1ccccc1)Cc1ccc(Oc2cccc(O)c2)cc1 [Example 115, N-(3-{benzyl[4-(3-hydroxyphenoxy)benzyl]amino}-2-methylphenyl)methanesulfonamide] | 165 | –
Cc1c(NS(C)(=O)=O)cccc1N(Cc1ccccc1)Cc1ccc(Oc2cccc(OCC(=O)O)c2)cc1 [Example 62, (3-{4-[(benzyl{2-methyl-3-[(methylsulfonyl)amino]phenyl}amino)methyl]phenoxy}phenoxy)acetic acid] | 246 | –
Cc1c(NS(C)(=O)=O)cccc1N(Cc1ccc(Br)cc1)Cc1ccc(Oc2ccccc2)cc1 [Example 103, N-{3-[(4-bromobenzyl)(4-phenoxybenzyl)amino]-2-methylphenyl}methanesulfonamide] | 78.3 | –
Cc1c(NS(C)(=O)=O)cccc1N(Cc1ccc(F)cc1F)Cc1ccc(F)cc1F [Example 24, N-{3-[bis(2,4-difluorobenzyl)amino]-2-methylphenyl}methanesulfonamide] | 2590 | –
Cc1c(NS(C)(=O)=O)cccc1N(Cc1ccccc1)Cc1ccc(OCC=CBr)cc1 [Example 35, N-{3-[benzyl(4-{[3-bromo-2-propenyl]oxy}benzyl)amino]-2-methylphenyl}methanesulfonamide] | > 10000 | –
Cc1c(NS(C)(=O)=O)cccc1N(Cc1ccc(Oc2ccc(CCC(=O)O)cc2)cc1)Cc1ccc(F)cc1F [Example 50, N-{3-[(4-(4-(2-carboxyethyl)phenoxy)benzyl)(2,4-difluorobenzyl)amino]-2-methylphenyl}methanesulfonamide] | 190 | –
Cc1c(NS(C)(=O)=O)cccc1N(Cc1ccccc1)Cc1ccc(Cl)cc1 [Example 29, N-{3-[benzyl(4-chlorobenzyl)amino]-2-methylphenyl}methanesulfonamide] | > 10000 | –
COCOc1ccc(Oc2ccc(CN(Cc3ccccc3)c3cccc(NS(C)(=O)=O)c3C)cc2)cc1 [Example 97, N-[3-(benzyl{4-[4-(methoxymethoxy)phenoxy]benzyl}amino)-2-methylphenyl]methanesulfonamide] | 772 | –
Cc1c(NS(C)(=O)=O)cccc1N(Cc1ccc(Oc2ccc(F)c(OCC(=O)O)c2)cc1)Cc1ccc(F)cc1F [Example 305, (5-(4-(((2,4-difluorobenzyl)(2-methyl-3-((methylsulfonyl)amino)phenyl)amino)methyl)phenoxy)-2-fluorophenoxy)acetic acid] | 8.9 | –
Cc1c(NS(C)(=O)=O)cccc1N(Cc1ccccc1)Cc1ccc(Oc2ccc(CCC(=O)OCc3ccccc3)cc2)cc1 [Example 98, benzyl 3-(4-{4-[(benzyl{2-methyl-3-[(methylsulfonyl)amino]phenyl}amino)methyl]phenoxy}phenyl)propanoate] | – | 87.4
Cc1c(NS(C)(=O)=O)cccc1N(Cc1ccccc1)Cc1ccc2c(c1)OCCO2 [Example 16, N-{3-[benzyl(2,3-dihydro-1,4-benzodioxin-6-ylmethyl)amino]-2-methylphenyl}methanesulfonamide] | – | 75.6
Cc1c(NS(C)(=O)=O)cccc1N(Cc1ccc(Oc2ccc(CCCC(=O)O)cc2)cc1)Cc1ccc(F)cc1F [Example 74, 4-(4-{4-[((2,4-difluorobenzyl){2-methyl-3-[(methylsulfonyl)amino]phenyl}amino)methyl]phenoxy}phenyl)butanoic acid] | – | 97.2
Cc1c(NS(C)(=O)=O)cccc1N(Cc1ccccc1)Cc1ccc(Oc2ccc(OCCCC(=O)N[C@@H](CO)C(=O)O)cc2)cc1 [Example 258, N-[4-(4-{4-[(benzyl{2-methyl-3-[(methylsulfonyl)amino]phenyl}amino)methyl]phenoxy}phenoxy)butanoyl]-L-serine] | – | 91.6
Cc1c(NS(C)(=O)=O)cccc1N(Cc1ccccc1)Cc1ccc(Oc2ccc(OCC(=O)NC3CCOC3=O)cc2)cc1 (stereo not drawn) [Example 274, 2-(4-{4-[(benzyl{2-methyl-3-[(methylsulfonyl)amino]phenyl}amino)methyl]phenoxy}phenoxy)-N-(2-oxotetrahydrofuran-3-yl)acetamide] | – | 89.9
COc1ccc(CN(Cc2ccccc2C#N)c2cccc(NS(C)(=O)=O)c2C)c(F)c1 [Example 21, N-{3-[(2-cyanobenzyl)(2-fluoro-4-methoxybenzyl)amino]-2-methylphenyl}methanesulfonamide] | – | 71.5
Cc1c(NS(C)(=O)=O)cccc1N(Cc1ccccc1)Cc1ccc(Oc2ccc(OCCCCC(=O)N(C)CC(=O)O)cc2)cc1 [Example 264, N-[5-(4-{4-[(benzyl{2-methyl-3-[(methylsulfonyl)amino]phenyl}amino)methyl]phenoxy}phenoxy)pentanoyl]-N-methylglycine] | – | 89.5
Cc1c(NS(C)(=O)=O)cccc1N(Cc1ccccc1)Cc1ccc(C(=O)c2ccc(OC[C@H](O)CO)cc2)cc1 [Example 250, N-(3-{benzyl[4-(4-{[(2R)-2,3-dihydroxypropyl]oxy}benzoyl)benzyl]amino}-2-methylphenyl)methanesulfonamide] | – | 92.9
Cc1c(NS(C)(=O)=O)cccc1N(Cc1ccccc1)Cc1ccc(Oc2ccc(OCCCCC(=O)N[C@H](C(=O)O)C(C)C)cc2)cc1 [Example 266, N-[5-(4-{4-[(benzyl{2-methyl-3-[(methylsulfonyl)amino]phenyl}amino)methyl]phenoxy}phenoxy)pentanoyl]-L-valine] | – | 90.7
Cc1c(NS(C)(=O)=O)cccc1N(Cc1ccc(Oc2ccc(Cl)c(OCC(=O)O)c2)cc1)Cc1ccccc1F [Example 306, (2-chloro-5-(4-(((2-fluorobenzyl)(2-methyl-3-((methylsulfonyl)amino)phenyl)amino)methyl)phenoxy)phenoxy)acetic acid] | – | 97
Cc1c(NS(C)(=O)=O)cccc1N(Cc1ccccc1)Cc1ccc(Oc2ccc(OCCCCC(=O)NCC(=O)O)cc2)cc1 [Example 261, N-[5-(4-{4-[(benzyl{2-methyl-3-[(methylsulfonyl)amino]phenyl}amino)methyl]phenoxy}phenoxy)pentanoyl]glycine] | – | 91.5
Cc1c(NS(C)(=O)=O)cccc1N(Cc1ccccc1)Cc1ccc(Oc2cccc(OC3CCOC3=O)c2)cc1 (stereo not drawn) [Example 112, N-{3-[benzyl(4-{3-[(2-oxotetrahydrofuran-3-yl)oxy]phenoxy}benzyl)amino]-2-methylphenyl}methanesulfonamide] | – | 96.9
Cc1c(NS(C)(=O)=O)cccc1N(Cc1ccccc1)Cc1ccc(C(=O)c2cccc(OCC3CCOC3)c2)cc1 (stereo not drawn) [Example 245, N-[3-(benzyl{4-[3-(tetrahydrofuran-3-ylmethoxy)benzoyl]benzyl}amino)-2-methylphenyl]methanesulfonamide] | – | 96.3
CC[C@H](C)[C@H](NC(=O)CCCOc1ccc(Oc2ccc(CN(Cc3ccccc3)c3cccc(NS(C)(=O)=O)c3C)cc2)cc1)C(=O)O [Example 259, N-[4-(4-{4-[(benzyl{2-methyl-3-[(methylsulfonyl)amino]phenyl}amino)methyl]phenoxy}phenoxy)butanoyl]-L-isoleucine] | – | 91.2
Cc1c(NS(C)(=O)=O)cccc1N(Cc1ccccc1)Cc1ccc2c(c1)OCO2 [Example 15, N-{3-[(1,3-benzodioxol-5-ylmethyl)(benzyl)amino]-2-methylphenyl}methanesulfonamide] | – | 77.9
